Earlier results, collected in patent US20170119791A1, “METHODS AND COMPOSITIONS FOR DERMATOLOGICAL USE COMPRSING BETAMETHASONE AND BIOPOLYMERS” (APEX LABORATORIES PRIVATE LIMITED, priority 2015, published 2017).
Like-named read-outs stand apart in the source and are kept apart here.

Solubility (in acetone) | Solubility (in alcohol) | Solubility (in water) | Solubility (in benzene) | Solubility (in chloroform) | Solubility (in ether) | SMILES
freely soluble | sparingly soluble | insoluble |  |  |  | CCC(=O)OCC(=O)[C@@]1(OC(=O)CC)[C@@H](C)C[C@H]2[C@@H]3CCC4=CC(=O)C=C[C@]4(C)[C@@]3(F)[C@@H](O)C[C@@]21C [Betamethasone dipropionate, 9-fluoro-11β, 17,21-trihydroxy-16β-methylpregna-1,4-diene-3,20-dione 17,21-dipropionate]
freely soluble | soluble | practically insoluble | slightly soluble | freely soluble | slightly soluble | CCCCC(=O)O[C@]1(C(=O)CO)[C@@H](C)C[C@H]2[C@@H]3CCC4=CC(=O)C=C[C@]4(C)[C@@]3(F)[C@@H](O)C[C@@]21C [Betamethasone valerate, 9-Fluoro-11β, 17,21-trihydroxy-16β-methylpregna-1,4-diene-3,20-dione 17-valerate]
